Here are results for 22 compounds from patent US20250122218A1, “MODULATORS OF CYSTIC FIBROSIS TRANSMEMBRANE CONDUCTANCE REGULATOR” (Vertex Pharmaceuticals Incorporated, priority 2022, published 2025).

SMILES strings stand for the structures. A value given as a limit tells only on which side of the number the result lay.

T1 sequence (P13569 with tags, fused parts or gaps DEL508-508): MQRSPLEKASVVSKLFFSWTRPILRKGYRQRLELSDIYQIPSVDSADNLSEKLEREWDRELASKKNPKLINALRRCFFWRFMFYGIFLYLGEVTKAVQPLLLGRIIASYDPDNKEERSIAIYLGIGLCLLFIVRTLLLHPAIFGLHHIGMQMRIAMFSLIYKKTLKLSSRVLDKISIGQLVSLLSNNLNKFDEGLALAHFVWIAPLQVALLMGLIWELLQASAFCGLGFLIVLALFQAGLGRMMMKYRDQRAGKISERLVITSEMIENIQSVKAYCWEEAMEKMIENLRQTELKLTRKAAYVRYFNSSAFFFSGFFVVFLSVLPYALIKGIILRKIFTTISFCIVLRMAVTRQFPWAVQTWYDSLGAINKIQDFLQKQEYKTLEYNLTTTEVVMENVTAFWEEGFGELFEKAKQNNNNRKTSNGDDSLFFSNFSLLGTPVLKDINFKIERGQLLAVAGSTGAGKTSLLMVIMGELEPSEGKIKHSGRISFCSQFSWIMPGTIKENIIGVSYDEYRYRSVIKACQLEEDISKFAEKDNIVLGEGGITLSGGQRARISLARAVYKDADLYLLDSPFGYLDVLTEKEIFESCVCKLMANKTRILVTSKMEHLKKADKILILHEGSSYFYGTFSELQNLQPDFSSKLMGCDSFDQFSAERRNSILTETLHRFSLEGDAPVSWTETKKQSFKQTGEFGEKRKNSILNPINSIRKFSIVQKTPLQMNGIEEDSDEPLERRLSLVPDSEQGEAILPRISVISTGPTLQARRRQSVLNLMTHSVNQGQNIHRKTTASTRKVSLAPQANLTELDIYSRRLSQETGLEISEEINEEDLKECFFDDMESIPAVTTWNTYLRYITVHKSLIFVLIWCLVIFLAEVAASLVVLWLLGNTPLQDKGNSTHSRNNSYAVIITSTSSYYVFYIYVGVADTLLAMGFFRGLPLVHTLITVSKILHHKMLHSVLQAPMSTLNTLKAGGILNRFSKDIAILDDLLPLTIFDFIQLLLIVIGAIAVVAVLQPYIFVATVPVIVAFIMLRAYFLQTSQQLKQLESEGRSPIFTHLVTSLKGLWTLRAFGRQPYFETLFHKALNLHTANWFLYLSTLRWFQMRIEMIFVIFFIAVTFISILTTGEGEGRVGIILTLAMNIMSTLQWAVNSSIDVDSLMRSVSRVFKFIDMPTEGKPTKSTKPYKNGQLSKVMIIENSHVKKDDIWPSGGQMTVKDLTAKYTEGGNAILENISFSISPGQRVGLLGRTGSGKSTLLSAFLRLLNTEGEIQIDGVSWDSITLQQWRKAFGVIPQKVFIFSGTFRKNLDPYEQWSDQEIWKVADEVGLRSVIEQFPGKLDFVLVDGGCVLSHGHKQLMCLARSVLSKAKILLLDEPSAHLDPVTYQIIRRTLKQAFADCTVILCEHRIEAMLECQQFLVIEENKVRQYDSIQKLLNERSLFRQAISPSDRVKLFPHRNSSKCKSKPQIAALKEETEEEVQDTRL

The assay concerns the target T1, CFTR in F508del/MF-HBE cells (Homo sapiens, UniProt P13569, DEL508-508).
T1 construct: human bronchial epithelial (HBE) cells derived from CF subjects heterozygous for F508del and a minimal function CFTR mutation; endogenous in cells; host or cells: primary human bronchial epithelial cells from CF subjects (F508del/MF-HBE)
Briefly: Ussing chamber assay of CFTR-mediated short-circuit currents (identification of potentiator compounds). The settings on record: potentiator incubated 18-24 hours at 37° C. in combination with 10 μM corrector, in the presence of 20% human serum, CFTR-mediated ISC. The class given is cell-based. Here is the method: Ussing chamber experiments were performed using human bronchial epithelial (HBE) cells derived from CF subjects heterozygous for F508del and a minimal function CFTR mutation (F508del/MF-HBE) and cultured as previously described (Neuberger T, Burton B, Clark H, Van Goor F; Methods Mol. Biol. 2011:741:39-54). After four days the apical media was removed, and the cells were grown at an air liquid interface for >14 days prior to use.
To isolate the CFTR-mediated short-circuit (ISC) current, F508del/MF-HBE grown on Costar® Snapwell™ cell culture inserts were mounted in an Ussing chamber and the transepithelial ISC was measured under voltage-clamp recording conditions (Vhold=0 mV) at 37° C. The basolateral solution contained (in mM) 145 NaCl, 0.83 K2HPO4, 3.3 KH2PO4, 1.2 MgCl2, 1.2 CaCl2), 10 Glucose, 10 HEPES (pH adjusted to 7.4 with NaOH) and the apical solution contained (in mM) 145 NaGluconate, 1.2 MgCl2, 1.2 CaCl2), 10 glucose, 10 HEPES (pH adjusted to 7.4 with NaOH) and 30 μM amiloride to block the epithelial sodium channel. Forskolin (20 μM) was added to the apical surface to activate CFTR, followed by apical addition of a CFTR inhibitor cocktail consisting of BPO, GlyH-101 and CFTR inhibitor 172 (each at 20 μM final assay concentration) to specifically isolate CFTR currents. The CFTR-mediated ISC (μA/cm^2) for each condition was determined from the peak forskolin response to the steady-state current following inhibition.
The activity of the CFTR potentiator compounds on the CFTR-mediated ISC was determined in Ussing chamber studies as described above. The F508del/MF-HBE cell cultures were incubated with the potentiator compounds at a range of concentrations in combination with 10 μM (14S)-8-[3-(2-{dispiro[2.0.2.1]heptan-7-yl}ethoxy)-1H-pyrazol-1-yl]-12,12-dimethyl-2λ^6-thia-3,9,11,18,23-pentaazatetracyclo[17.3.1.111,14.05,10]tetracosa-1(22),5,7,9,19(23),20-hexaene-2,2,4-trione for 18-24 hours at 37° C. and in the presence of 20% human serum. The concentration of potentiator compounds and (14S)-8-[3-(2-{dispiro[2.0.2.1]heptan-7-yl}ethoxy)-1H-pyrazol-1-yl]-12,12-dimethyl-2λ^6-thia-3,9,11,18,23-pentaazatetracyclo[17.3.1.111,14.05,10]tetracosa-1(22),5,7,9,19(23),20-hexaene-2,2,4-trione used during the 18-24 hours incubations was kept constant throughout the Ussing chamber measurement of the CFTR-mediated ISC to ensure compounds were present throughout the entire experiment. The efficacy and potency of the putative F508del potentiators was compared to that of the known potentiator, ivacaftor (N-[2,4-bis(1,1-dimethylethyl)-5-hydroxyphenyl]-1,4-dihydro-4-oxoquinoline-3-carboxamide).
For `CC1CCCCCCC(O)(C(F)(F)F)C2=NN=C(O2)c2nc1c(C(F)(F)F)cc2N` (single isomer, unassigned) [Compound 19, 17-amino-13-methyl-6,15-bis(trifluoromethyl)-19-oxa-3,4,18-triazatricyclo[12.3.1.12,5]nonadeca-1(18),2,4,14,16-pentaen-6-ol], the EC50 is less than 500 nM.
With `CC(=O)N1CCCCCC(O)(C(F)(F)F)C2=NN=C(O2)c2nc(c(C(F)(F)F)cc2N)C1` (single isomer, unassigned) [Compound 20, 1-[17-amino-6-hydroxy-6,15-bis(trifluoromethyl)-19-oxa-3,4,12,18-tetrazatricyclo[12.3.1.12,5]nonadeca-1(18),2,4,14,16-pentaen-12-yl]ethanone] the figure was less than 500 nM; with `CC(=O)N1CCCCCC(O)(C(F)(F)F)C2=NN=C(O2)c2nc(c(C(F)(F)F)cc2N)C1` (single isomer, unassigned) [Compound 21, 1-[17-amino-6-hydroxy-6,15-bis(trifluoromethyl)-19-oxa-3,4,12,18-tetrazatricyclo[12.3.1.12,5]nonadeca-1(18),2,4,14,16-pentaen-12-yl]ethanone], more than 1000 nM; with `Nc1cc(C(F)(F)F)c2nc1-c1nnc(o1)C(O)(C(F)(F)F)CCCCCN(C(=O)C1CCC1)C2` (single isomer, unassigned) [Compound 22, [17-amino-6-hydroxy-6,15-bis(trifluoromethyl)-19-oxa-3,4,12,18-tetrazatricyclo[12.3.1.12,5]nonadeca-1(18),2,4,14,16-pentaen-12-yl]-cyclobutyl-methanone], less than 500 nM.
In the case of `Nc1cc(C(F)(F)F)c2nc1-c1nnc(o1)C(O)(C(F)(F)F)CCCCCN(C(=O)C1CCC1)C2` (single isomer, unassigned) [Compound 23, [17-amino-6-hydroxy-6,15-bis(trifluoromethyl)-19-oxa-3,4,12,18-tetrazatricyclo[12.3.1.12,5]nonadeca-1(18),2,4,14,16-pentaen-12-yl]-cyclobutyl-methanone], the EC50 is more than 1000 nM.
Take `Nc1cc(C(F)(F)F)c2nc1-c1nnc(o1)C(O)(C(F)(F)F)CCCCCCC2(O)C(F)(F)F` (single isomer, unassigned) [Compound 25, 17-amino-6,13,15-tris(trifluoromethyl)-19-oxa-3,4,18-triazatricyclo[12.3.1.12,5]nonadeca-1(18),2,4,14,16-pentaene-6,13-diol]: the EC50 was more than 1000 nM.
`Nc1cc(C(F)(F)F)c2nc1-c1nnc(o1)C(O)(C(F)(F)F)CCCCCCC2(O)C(F)(F)F` (single isomer, unassigned) [Compound 26, 17-amino-6,13,15-tris(trifluoromethyl)-19-oxa-3,4,18-triazatricyclo[12.3.1.12,5]nonadeca-1(18),2,4,14,16-pentaene-6,13-diol]: the EC50 is less than 500 nM.
On to `Nc1cc(C(F)(F)F)c2nc1-c1nnc(o1)C(O)(C(F)(F)F)CCCCCCC2(O)C(F)(F)F` (single isomer, unassigned) [Compound 27, 17-amino-6,13,15-tris(trifluoromethyl)-19-oxa-3,4,18-triazatricyclo[12.3.1.12,5]nonadeca-1(18),2,4,14,16-pentaene-6,13-diol], for which the half-maximal effective concentration (EC50) is less than 500 nM.
With `Nc1cc(C(F)(F)F)c2nc1-c1nnc(o1)C(O)(C(F)(F)F)CCCCCCC2(O)C(F)(F)F` (single isomer, unassigned) [Compound 28, 17-amino-6,13,15-tris(trifluoromethyl)-19-oxa-3,4,18-triazatricyclo[12.3.1.12,5]nonadeca-1(18),2,4,14,16-pentaene-6,13-diol] the figure was more than 1000 nM; with `CC(C)(C)ON=C1CCCCCC[C@](O)(C(F)(F)F)C2=NN=C(O2)c2nc1c(C(F)(F)F)cc2N` (single isomer, unassigned) [Compound 29], less than 500 nM; with `CC(C)(C)ON=C1CCCCCC[C@](O)(C(F)(F)F)C2=NN=C(O2)c2nc1c(C(F)(F)F)cc2N` (single isomer, unassigned) [Compound 30], less than 500 nM.
Consider `Nc1cc(C(F)(F)F)c2nc1-c1nnc(o1)[C@@](O)(C(F)(F)F)CCCCCCC2=NO` (single isomer, unassigned) [Compound 31], for which the 50% effective concentration (EC50) is less than 500 nM.
In the case of `Nc1cc(C(F)(F)F)c2nc1-c1nnc(o1)C(O)(C(F)(F)F)CCCCCCC1=NN=C2O1` (single isomer, unassigned) [Compound 32, 20-amino-6,18-bis(trifluoromethyl)-22,23-dioxa-3,4,14,15,21-pentaazatetracyclo[15.3.1.12,5.113,16]tricosa-1(21),2,4,13,15,17,19-heptaen-6-ol], the EC50 is less than 500 nM.
`Nc1cc(C(F)(F)F)c2nc1-c1nnc(o1)C(O)(C(F)(F)F)CCCCCCC1=NN=C2O1` (single isomer, unassigned) [Compound 33, 20-amino-6,18-bis(trifluoromethyl)-22,23-dioxa-3,4,14,15,21-pentaazatetracyclo[15.3.1.12,5.113,16]tricosa-1(21),2,4,13,15,17,19-heptaen-6-ol]: the concentration giving a half-maximal response (EC50) is more than 1000 nM.
For the compound `Nc1cc(C(F)(F)F)c2nc1-c1nnc(o1)C(O)(C(F)(F)F)CCC(=O)CCCC2=O` (single isomer, unassigned) [Compound 34, 17-amino-6-hydroxy-6,15-bis(trifluoromethyl)-19-oxa-3,4,18-triazatricyclo[12.3.1.12,5]nonadeca-1(18),2,4,14,16-pentaene-9,13-dione], the EC50 was less than 500 nM.
With `Nc1cc(C(F)(F)F)c2nc1-c1nnc(o1)C(O)(C(F)(F)F)CCC(=O)CCCC2=O` (single isomer, unassigned) [Compound 35, 17-amino-6-hydroxy-6,15-bis(trifluoromethyl)-19-oxa-3,4,18-triazatricyclo[12.3.1.12,5]nonadeca-1(18),2,4,14,16-pentaene-9,13-dione] the figure was more than 1000 nM; with `Nc1cc(C(F)(F)F)c2nc1-c1nnc(o1)C(O)(C(F)(F)F)CCCC(=O)CCC2=O` (single isomer, unassigned) [Compound 36, 17-amino-6-hydroxy-6,15-bis(trifluoromethyl)-19-oxa-3,4,18-triazatricyclo[12.3.1.12,5]nonadeca-1(18),2,4,14,16-pentaene-10,13-dione], more than 1000 nM; with `Nc1cc(C(F)(F)F)c2nc1-c1nnc(o1)C(O)(C(F)(F)F)CCCC(=O)CCC2=O` (single isomer, unassigned) [Compound 37, 17-amino-6-hydroxy-6,15-bis(trifluoromethyl)-19-oxa-3,4,18-triazatricyclo[12.3.1.12,5]nonadeca-1(18),2,4,14,16-pentaene-10,13-dione], more than 1000 nM.
In the case of `CC1CCCCC[C@](O)(C(F)(F)F)C2=NN=C(O2)c2nc(c(C(F)(F)F)cc2N)C1` (single isomer, unassigned) [Compound 55], the EC50 was less than 500 nM.
For `CC1CCCCC[C@](O)(C(F)(F)F)C2=NN=C(O2)c2nc(c(C(F)(F)F)cc2N)C1` (single isomer, unassigned) [Compound 56], the EC50 was less than 500 nM.
Regarding `Nc1cc(C(F)(F)F)c2nc1-c1nnc(o1)C(O)(C(F)(F)F)c1cc(ccc1F)CCCCC2=O` (single isomer, unassigned) [Compound 57, 20-amino-8-fluoro-6-hydroxy-6,18-bis(trifluoromethyl)-23-oxa-3,4,21-triazatetracyclo[15.3.1.12,5.17,11]tricosa-1(21),2,4,7(22),8,10,17,19-octaen-16-one], the EC50 was less than 500 nM.
As for `Nc1cc(C(F)(F)F)c2nc1-c1nnc(o1)C(O)(C(F)(F)F)c1cc(ccc1F)CCCCC2=O` (single isomer, unassigned) [Compound 58, 20-amino-8-fluoro-6-hydroxy-6,18-bis(trifluoromethyl)-23-oxa-3,4,21-triazatetracyclo[15.3.1.12,5.17,11]tricosa-1(21),2,4,7(22),8,10,17,19-octaen-16-one], the figure is 500 to 1000 nM.

As usually defined, the EC50 is the concentration that produces a half-maximal response.
